In ChEMBL document CHEMBL1201862, “PubChem BioAssay data set” (2004):
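In this assay, cells in 96-well plates receive the compound at five concentrations for 48 hours. Endpoints are linearly interpolated between the surrounding concentrations. Here, GI50 denotes the concentration required for 50% inhibition of growth.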 Activity calls are given as the source filed them. No stated cut-off is given here; in the data, active = GI50 up to about 1.1 µM and inactive = higher.

Columns and labels:
Assay in all cases: NCI tumour cell line growth inhibition, 48 h
[1] = test system: NCI-H226
[2] = test system: HCT-116
[3] = test system: CAKI-1
[4] = test system: MDA-MB-435
[5] = test system: SK-MEL-2
[6] = test system: K562
[7] = test system: HOP-62
[8] = test system: NCI-H460
[9] = test system: TK-10
[10] = test system: NCI-H23
[11] = test system: PC-3
[12] = test system: M14
[13] = test system: SN12C
[14] = test system: SK-OV-3
[15] = test system: NCI/ADR-RES
[16] = test system: RXF 393
[17] = test system: CCRF-CEM
[18] = test system: SF-295
[19] = test system: IGROV-1
[20] = test system: RPMI-8226

| Compound | GI50 [1] | GI50 [2] | GI50 [3] | GI50 [4] | GI50 [5] | GI50 [6] | GI50 [7] | GI50 [8] | GI50 [9] | GI50 [10] | GI50 [11] | GI50 [12] | GI50 [13] | GI50 [14] | GI50 [15] | GI50 [16] | GI50 [17] | GI50 [18] | GI50 [19] | GI50 [20] |
| --- | --- | --- | --- | --- | --- | --- | --- | --- | --- | --- | --- | --- | --- | --- | --- | --- | --- | --- | --- | --- |
| CC1C(=NO)C(C)C(c2ccccc2)N(N=O)C1c1ccccc1 (configuration not stated) | 24.7 µM (inactive) | 17.5 µM (inactive) | > 10 µM (inactive) | 21.3 µM (inactive) | 18.7 µM (inactive) | 32.7 µM (inactive) | 19.1 µM (inactive) | 16 µM (inactive) | 24.1 µM (inactive) | 24.8 µM (inactive) | 25.4 µM (inactive) | 16 µM (inactive) | 15.5 µM (inactive) | 4.72 µM (inactive) | 17.5 µM (inactive) | 17.1 µM (inactive) | 28.1 µM (inactive) | 13.8 µM (inactive) | 19.6 µM (inactive) |  |
| O=C(O)CCc1ccc2c(c1)CC1(Cc3ccccc3C1)C2 | 79.8 µM (inactive) | > 100 µM (inactive) |  | > 100 µM (inactive) | > 100 µM (inactive) |  | > 100 µM (inactive) |  | > 100 µM (inactive) | > 100 µM (inactive) | > 100 µM (inactive) | > 100 µM (inactive) | > 100 µM (inactive) | > 100 µM (inactive) | > 100 µM (inactive) | > 100 µM (inactive) | 80 µM (inactive) | > 100 µM (inactive) | > 100 µM (inactive) | > 100 µM (inactive) |
| COc1ccc(C2=C(Cl)C(=O)N(c3ccc(OC)cc3OC)C(=O)C2(Cl)Cl)cc1 | 11.9 µM (inactive) | 15.5 µM (inactive) | 11.9 µM (inactive) | 16.9 µM (inactive) | 20.9 µM (inactive) | 19.8 µM (inactive) | 18.5 µM (inactive) | 45.2 µM (inactive) | 18.9 µM (inactive) | 15.4 µM (inactive) | 13.2 µM (inactive) | 14.6 µM (inactive) | < 0.01 µM (active) | 47.3 µM (inactive) | 14.5 µM (inactive) | 17.9 µM (inactive) |  | 24.3 µM (inactive) | 18.5 µM (inactive) |  |
| O=C([C@H](O)[C@@H](O)c1ccc(Br)cc1)C12CC3CC(CC(C3)C1)C2 | > 49.8 µM (inactive) | 10.4 µM (inactive) | 14.9 µM (inactive) | 11.6 µM (inactive) | 16.3 µM (inactive) | 31.5 µM (inactive) | 7.6 µM (inactive) | 3.74 µM (inactive) | 14 µM (inactive) | 8.45 µM (inactive) | 6.58 µM (inactive) | 13.6 µM (inactive) | 17.9 µM (inactive) | 28.4 µM (inactive) | 24.9 µM (inactive) | 52.7 µM (inactive) |  | 13 µM (inactive) | 4.48 µM (inactive) | 14.3 µM (inactive) |
| COc1ccc(N[C@H](C[S+]([O-])c2ccc(C)cc2)C(F)(F)F)cc1 (some centres not stated) | > 100 µM (inactive) | > 100 µM (inactive) | > 100 µM (inactive) | > 100 µM (inactive) | > 100 µM (inactive) | > 100 µM (inactive) |  | > 100 µM (inactive) | > 100 µM (inactive) | > 100 µM (inactive) | > 100 µM (inactive) | > 100 µM (inactive) | > 100 µM (inactive) | > 100 µM (inactive) | > 100 µM (inactive) | > 100 µM (inactive) | > 100 µM (inactive) | > 100 µM (inactive) | > 100 µM (inactive) |  |
| COC(=O)C(C)(NC(=O)C(CC(=O)OC(C)(C)C)NC(=O)OC(C)(C)C)c1ccccc1 (configuration not stated) | > 100 µM (inactive) | > 100 µM (inactive) | > 100 µM (inactive) | > 100 µM (inactive) |  | > 100 µM (inactive) | > 100 µM (inactive) | 85.7 µM (inactive) | > 100 µM (inactive) | > 100 µM (inactive) | > 100 µM (inactive) | > 100 µM (inactive) | > 100 µM (inactive) | > 100 µM (inactive) | 55.1 µM (inactive) | > 100 µM (inactive) | > 100 µM (inactive) | 81.8 µM (inactive) | > 100 µM (inactive) | 72.8 µM (inactive) |
| CC(=O)N(CCc1ccccc1)C(C#N)c1ccc(OCCCCCCCCCCOc2ccc(C(C#N)N(CCc3ccccc3)C(C)=O)cc2)cc1 (configuration not stated) | 22 µM (inactive) | > 100 µM (inactive) | 97.3 µM (inactive) | > 100 µM (inactive) | 47.2 µM (inactive) | > 100 µM (inactive) |  | 94.8 µM (inactive) | 41.2 µM (inactive) | 44.9 µM (inactive) | 63.4 µM (inactive) | > 100 µM (inactive) | > 100 µM (inactive) | 22.9 µM (inactive) | 24.6 µM (inactive) | 22.6 µM (inactive) | > 100 µM (inactive) | 12.4 µM (inactive) | 31.6 µM (inactive) |  |
| NC(=O)N/N=C(\Cc1cc(=O)oc2cc(O)ccc12)C(=O)Nc1ccccc1C(N)=O | > 100 µM (inactive) | > 100 µM (inactive) | > 100 µM (inactive) | > 100 µM (inactive) | > 100 µM (inactive) |  | > 100 µM (inactive) | > 100 µM (inactive) | > 100 µM (inactive) | > 100 µM (inactive) | > 100 µM (inactive) | > 100 µM (inactive) | > 100 µM (inactive) | > 100 µM (inactive) | > 100 µM (inactive) | > 100 µM (inactive) | > 100 µM (inactive) | > 100 µM (inactive) | > 100 µM (inactive) |  |
| COC(NC(=O)Nc1ccccc1C)(C(F)(F)F)C(F)(F)F | > 100 µM (inactive) | > 100 µM (inactive) |  | > 100 µM (inactive) |  | 77.1 µM (inactive) | > 100 µM (inactive) | > 100 µM (inactive) | > 100 µM (inactive) | 81.5 µM (inactive) | 56.4 µM (inactive) | > 100 µM (inactive) | > 100 µM (inactive) | > 100 µM (inactive) | > 100 µM (inactive) | 1.21 µM (inactive) | 40.7 µM (inactive) | > 100 µM (inactive) | > 100 µM (inactive) | > 100 µM (inactive) |
| CS(=N)(=O)CCC(N)P(=O)(O)O (configuration not stated) | > 100 µM (inactive) | > 100 µM (inactive) | > 100 µM (inactive) | > 100 µM (inactive) | > 100 µM (inactive) | > 100 µM (inactive) | > 100 µM (inactive) | > 100 µM (inactive) | > 100 µM (inactive) | > 100 µM (inactive) | > 100 µM (inactive) | > 100 µM (inactive) | > 100 µM (inactive) | > 100 µM (inactive) | > 100 µM (inactive) | > 100 µM (inactive) |  | > 100 µM (inactive) | > 100 µM (inactive) | > 100 µM (inactive) |
| Cc1cc(/N=N/c2ccccc2C)ccc1N | 13.9 µM (inactive) | 15.5 µM (inactive) | 15.3 µM (inactive) | 19.5 µM (inactive) | 15.6 µM (inactive) | 11.4 µM (inactive) | 5.6 µM (inactive) | 3.19 µM (inactive) | 19.6 µM (inactive) | 3.99 µM (inactive) | 11.1 µM (inactive) | 12.4 µM (inactive) | 12.4 µM (inactive) | 24.8 µM (inactive) | 11.1 µM (inactive) | 6.82 µM (inactive) | 1.42 µM (inactive) | 11.5 µM (inactive) | 14.6 µM (inactive) |  |
